Source: ChEMBL document CHEMBL1201862, “PubChem BioAssay data set” (2004)
Each block holds one compound with its values, some of them ahead of it. Calls of active or inactive are those of the source.

Experiments:
[1] = target: T1, Bcl-2-related protein A1 (Mus musculus, UniProt Q07440); assay: Bfl-1 binding inhibitors, SAR follow-up, biochemical, fluorescence polarization (AID 1070)
T1 sequence (Q07440 whole entry): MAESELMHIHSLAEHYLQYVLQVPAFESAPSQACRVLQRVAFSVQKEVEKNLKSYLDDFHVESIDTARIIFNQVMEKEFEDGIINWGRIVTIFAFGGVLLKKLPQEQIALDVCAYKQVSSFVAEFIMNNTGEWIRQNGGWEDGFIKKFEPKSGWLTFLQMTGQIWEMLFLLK

[2] = target: T1, Bcl-2-related protein A1; assay: small-molecule antagonists of Bfl-1/BH3 interaction – biochemical, TR-FRET, mouse Bfl-1, confirmation (AID 621);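 further: TR-FRET binding of GST-Bfl-1 to FITC-labelled Bid peptide via terbium antibody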
[3] = target: T2, NADPH oxidase 1 (Homo sapiens, UniProt Q9Y5S8); assay: Luminescence-based cell-based dose response assay to identify inhibitors of NADPH oxidase 1 (NOX1).; type: functional
T2 sequence (Q9Y5S8 whole entry): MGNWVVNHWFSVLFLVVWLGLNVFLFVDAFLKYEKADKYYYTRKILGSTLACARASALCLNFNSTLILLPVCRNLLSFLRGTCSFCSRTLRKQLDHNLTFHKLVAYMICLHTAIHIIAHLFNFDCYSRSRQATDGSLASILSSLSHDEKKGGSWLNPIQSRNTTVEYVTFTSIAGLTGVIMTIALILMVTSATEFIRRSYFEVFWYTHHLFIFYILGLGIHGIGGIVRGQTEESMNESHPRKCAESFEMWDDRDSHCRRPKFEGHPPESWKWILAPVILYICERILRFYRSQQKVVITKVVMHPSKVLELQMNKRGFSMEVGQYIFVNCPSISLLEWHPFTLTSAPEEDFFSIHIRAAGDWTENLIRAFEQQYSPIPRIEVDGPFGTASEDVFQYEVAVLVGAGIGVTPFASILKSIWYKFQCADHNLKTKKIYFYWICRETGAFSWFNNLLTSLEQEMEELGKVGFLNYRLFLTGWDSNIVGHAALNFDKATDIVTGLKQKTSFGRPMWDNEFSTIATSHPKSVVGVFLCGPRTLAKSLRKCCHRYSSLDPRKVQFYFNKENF

[4] = target: T2, NADPH oxidase 1; assay: Late-stage luminescence-based cell-based dose response assay to identify inhibitors of NADPH oxidase 1 (NOX1): Synthesized analogs.; type: functional
[5] = mitochondrial function rescue without frataxin homolog – Friedreich's ataxia, plus single-dose screen, dose response (AID 1465); type: functional;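 further: yeast depleted of Yfh1p frataxin homolog grown on glycerol needing respiration; WST-1 tetrazolium dye reduction as measure of cellular dehydrogenase metabolic activity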
[6] = target: T3, Small ubiquitin-related modifier 1 (Homo sapiens, UniProt P63165); assay: SUMO1 protein interaction blockers, potency – biochemical, fluorescence polarization, uHTS hits, dose response (AID 624382); type: functional; settings: read-out: IC50_Mean
T3 sequence (P63165 whole entry): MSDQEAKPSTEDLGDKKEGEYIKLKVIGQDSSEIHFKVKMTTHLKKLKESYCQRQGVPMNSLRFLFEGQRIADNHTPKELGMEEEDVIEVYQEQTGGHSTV

[7] = target: T3, Small ubiquitin-related modifier 1; assay: SUMO1 protein-protein binding blockers, potency – biochemical, FRET, dose response (AID 624383); type: functional; settings: read-out: IC50_Mean
[8] = target: T4, Small ubiquitin-related modifier 2 (Homo sapiens, UniProt P61956); assay: SUMO2 binding disruption by SUMO1 hits – biochemical, FRET, human SUMO2, uHTS hits, selectivity assay for SUMO1 interaction inhibitor project, dose response (AID 624384); type: functional; settings: read-out: IC50_Mean
T4 sequence (P61956 whole entry): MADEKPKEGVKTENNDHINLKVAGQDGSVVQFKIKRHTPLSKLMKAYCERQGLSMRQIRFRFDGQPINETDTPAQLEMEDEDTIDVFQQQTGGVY

[9] = target: Eukaryotic translation initiation factor 4E (Mus musculus, UniProt P63073); assay: blockers of eIF4G binding by eIF4E – biochemical, TR-FRET, dose response (AID 855); type: functional;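 further: potency for disrupting eIF4E binding to eIF4GI seen as loss of FRET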
Sequence of Eukaryotic translation initiation factor 4E (P63073 whole entry): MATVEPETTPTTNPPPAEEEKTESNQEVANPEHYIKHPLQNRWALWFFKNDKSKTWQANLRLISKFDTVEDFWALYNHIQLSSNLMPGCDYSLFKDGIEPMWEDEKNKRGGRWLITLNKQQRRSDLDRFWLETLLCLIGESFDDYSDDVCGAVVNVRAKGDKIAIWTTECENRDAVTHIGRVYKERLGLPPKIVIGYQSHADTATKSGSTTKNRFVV

[10] = target: T4, Small ubiquitin-related modifier 2; assay: disruption of SUMO2 interaction with SIM peptide – biochemical, fluorescence polarization, uHTS hits, selectivity assay for SUMO1 interaction inhibitor project, dose response (AID 624385); type: functional; settings: read-out: IC50_Mean
[11] = target: Acetyl-CoA acetyltransferase/HMG-CoA reductase (Enterococcus faecalis, UniProt Q9FD70); assay: class II HMG-CoA reductase inhibition potency – biochemical, Enterococcus faecalis, confirmation (AID 1233); type: functional
[12] = viability of HCT116 lacking mutant beta-catenin – cell-based, human colon tumor, dose response (AID 1045); type: functional;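 further: HCT116 colon tumor cells with beta catenin knocked out; cells exposed to compound for 60 hours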
[13] = target: Sphingosine 1-phosphate receptor 4 (Homo sapiens, UniProt O95977); assay: Fluorescence dose response cell-based high throughput screening assay for antagonists of the Sphingosine 1-Phosphate Receptor 4 (S1P4). [Related pubchem assays: 1524 (Confirmation in triplicates.), 1510 (Primary screen.)]; type: functional
Sequence of Sphingosine 1-phosphate receptor 4 (O95977 whole entry): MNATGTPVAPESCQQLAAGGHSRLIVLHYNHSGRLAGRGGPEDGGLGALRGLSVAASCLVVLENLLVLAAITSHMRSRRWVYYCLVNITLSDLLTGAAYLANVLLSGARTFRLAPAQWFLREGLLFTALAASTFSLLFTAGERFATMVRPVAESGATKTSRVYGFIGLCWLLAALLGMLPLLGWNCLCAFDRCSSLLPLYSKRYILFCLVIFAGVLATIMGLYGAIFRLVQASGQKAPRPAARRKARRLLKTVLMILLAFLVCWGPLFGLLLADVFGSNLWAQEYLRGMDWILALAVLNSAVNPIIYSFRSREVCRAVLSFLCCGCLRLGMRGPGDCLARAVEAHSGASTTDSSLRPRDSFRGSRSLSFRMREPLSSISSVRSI

[14] = viability of PTEN-deleted HCT116 cells – cell-based, HCT116 PTEN knockout, dose response (AID 1047); type: functional;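 further: HCT116 colon tumor cells with PTEN knocked out; cells exposed to compound for 60 hours before readout; potency for loss of cell viability measured by luminescence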
[15] = reduced cellular PGC1a acetyl-lysine signal – cell-based, cherry-picked samples, dose response (AID 720514); type: functional;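 further: potency may reflect raised or lowered acetylation signal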
[16] = target: T5, Microphthalmia-associated transcription factor (Homo sapiens, UniProt O75030); assay: reducers of TRPM1 reporter luminescence, concentration series – cell-based, SK-MEL-5, cherry-picked, set 3, MITF inhibitor project, dose response (AID 493073); type: functional;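 further: SK-MEL-5 melanoma cells with luciferase driven by the MITF target TRPM1 promoter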
T5 sequence (O75030 whole entry): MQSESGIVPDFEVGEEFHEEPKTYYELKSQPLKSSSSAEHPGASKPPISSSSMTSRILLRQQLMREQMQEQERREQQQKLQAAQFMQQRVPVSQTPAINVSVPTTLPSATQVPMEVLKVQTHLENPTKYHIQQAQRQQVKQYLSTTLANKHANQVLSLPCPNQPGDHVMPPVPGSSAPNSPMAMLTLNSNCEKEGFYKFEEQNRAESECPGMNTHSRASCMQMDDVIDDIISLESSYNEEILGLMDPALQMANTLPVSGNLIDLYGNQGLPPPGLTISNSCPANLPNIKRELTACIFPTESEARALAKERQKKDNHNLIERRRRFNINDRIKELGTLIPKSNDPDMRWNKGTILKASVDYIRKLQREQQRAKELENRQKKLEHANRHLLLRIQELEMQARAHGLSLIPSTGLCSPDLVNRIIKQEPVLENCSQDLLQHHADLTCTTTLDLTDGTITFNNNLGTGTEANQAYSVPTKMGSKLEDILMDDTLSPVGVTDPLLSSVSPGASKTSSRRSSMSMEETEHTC

[17] = target: Sphingosine 1-phosphate receptor 1 (Homo sapiens, UniProt P21453); type: functional;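 further: Tango beta-arrestin reporter U2OS cells stimulated with S1P near its EC80; inhibitor potency meaning antagonism of receptor activation by the natural agonist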
Sequence of Sphingosine 1-phosphate receptor 1 (P21453 whole entry): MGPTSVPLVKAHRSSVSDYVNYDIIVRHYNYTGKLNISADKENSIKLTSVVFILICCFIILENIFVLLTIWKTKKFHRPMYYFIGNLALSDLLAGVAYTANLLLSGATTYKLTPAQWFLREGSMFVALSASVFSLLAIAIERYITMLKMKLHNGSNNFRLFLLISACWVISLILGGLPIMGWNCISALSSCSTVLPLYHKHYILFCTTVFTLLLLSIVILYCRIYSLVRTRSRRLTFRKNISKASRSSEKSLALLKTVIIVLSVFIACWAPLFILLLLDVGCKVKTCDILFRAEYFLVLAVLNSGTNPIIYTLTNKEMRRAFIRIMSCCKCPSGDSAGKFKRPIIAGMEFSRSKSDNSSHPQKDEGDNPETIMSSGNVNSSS

[18] = target: Induced myeloid leukemia cell differentiation protein Mcl-1 (Homo sapiens, UniProt Q07820); assay: blockers of MCL1 binding to BIM peptide – biochemical, fluorescence polarization, BIM-BH3 peptide, 1536-well, dose response (AID 2217)
Sequence of Induced myeloid leukemia cell differentiation protein Mcl-1 (Q07820 whole entry): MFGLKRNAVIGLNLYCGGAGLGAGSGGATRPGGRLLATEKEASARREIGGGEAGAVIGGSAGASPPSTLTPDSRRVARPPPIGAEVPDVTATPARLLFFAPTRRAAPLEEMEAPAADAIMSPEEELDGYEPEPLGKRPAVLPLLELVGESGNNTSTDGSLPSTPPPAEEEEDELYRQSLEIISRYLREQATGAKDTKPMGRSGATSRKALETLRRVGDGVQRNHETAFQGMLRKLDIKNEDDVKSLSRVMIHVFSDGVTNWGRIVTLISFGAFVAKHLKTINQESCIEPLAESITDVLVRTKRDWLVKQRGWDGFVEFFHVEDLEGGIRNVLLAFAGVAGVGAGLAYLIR

[19] = target: Bcl-2-like protein 1 (Homo sapiens, UniProt Q07817); assay: blockers of BCLXL peptide binding – biochemical, fluorescence polarization, 1536-well, selectivity assay for MCL1 inhibitor project, dose response (AID 2218)
Sequence of Bcl-2-like protein 1 (Q07817 whole entry): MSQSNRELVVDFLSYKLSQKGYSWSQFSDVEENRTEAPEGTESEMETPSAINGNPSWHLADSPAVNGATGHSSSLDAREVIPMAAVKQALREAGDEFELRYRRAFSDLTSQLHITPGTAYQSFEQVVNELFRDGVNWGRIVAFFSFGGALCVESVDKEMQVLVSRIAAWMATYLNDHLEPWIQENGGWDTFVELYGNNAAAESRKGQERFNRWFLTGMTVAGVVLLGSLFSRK

[20] = target: T6, Leucine aminopeptidase (Plasmodium falciparum 3D7, UniProt Q8IL11); assay: P. falciparum M17LAP inhibitors, primary screen, biochemical, fluorogenic H-Leu-NHMec substrate, 1536-well (AID 1619); type: functional
T6 sequence (Q8IL11 whole entry): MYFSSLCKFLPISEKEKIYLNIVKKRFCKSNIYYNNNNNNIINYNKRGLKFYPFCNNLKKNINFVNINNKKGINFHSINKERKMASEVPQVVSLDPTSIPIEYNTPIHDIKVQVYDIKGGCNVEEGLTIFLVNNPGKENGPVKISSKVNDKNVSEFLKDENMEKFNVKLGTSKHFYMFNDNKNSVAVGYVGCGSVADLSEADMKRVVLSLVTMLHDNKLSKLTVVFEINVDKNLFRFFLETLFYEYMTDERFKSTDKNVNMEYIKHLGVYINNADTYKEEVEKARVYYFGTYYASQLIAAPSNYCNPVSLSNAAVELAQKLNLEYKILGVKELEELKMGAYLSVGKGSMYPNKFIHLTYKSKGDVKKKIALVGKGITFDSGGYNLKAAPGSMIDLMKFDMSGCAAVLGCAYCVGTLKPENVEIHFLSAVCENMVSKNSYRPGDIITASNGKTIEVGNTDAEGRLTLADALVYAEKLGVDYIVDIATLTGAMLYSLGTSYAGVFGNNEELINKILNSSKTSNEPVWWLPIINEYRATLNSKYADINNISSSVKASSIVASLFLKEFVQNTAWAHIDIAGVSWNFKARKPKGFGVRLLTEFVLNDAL

[21] = target: Procathepsin L (Homo sapiens, UniProt P07711); assay: CTSL1 protease inhibition – biochemical, QFRET, 1536-well, counter-screen for M1/M17 aminopeptidase inhibitor project, dose response (AID 2214)
Sequence of Procathepsin L (P07711 whole entry): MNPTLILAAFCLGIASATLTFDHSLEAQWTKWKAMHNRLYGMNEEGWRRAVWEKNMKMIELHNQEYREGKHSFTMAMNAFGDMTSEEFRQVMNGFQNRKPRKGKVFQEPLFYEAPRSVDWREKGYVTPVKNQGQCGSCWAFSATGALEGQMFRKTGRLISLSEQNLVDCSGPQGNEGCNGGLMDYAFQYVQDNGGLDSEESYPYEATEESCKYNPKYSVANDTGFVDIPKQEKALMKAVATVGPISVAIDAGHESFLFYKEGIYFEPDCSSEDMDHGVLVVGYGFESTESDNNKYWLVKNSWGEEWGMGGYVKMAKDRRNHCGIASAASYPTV

[22] = target: Aspartyl aminopeptidase (Plasmodium falciparum 3D7, UniProt Q8I2J3); assay: Counterscreen for inhibitors of M1 and M17 aminopeptidases: QFRET-based biochemical high throughput dose response assay for inhibitors of the Plasmodium falciparum M18 Aspartyl Aminopeptidase (PFM18AAP). [Related PubChem assays: 1619 (Screening assay (M17LAP inhibitors).), 1445 (Screening assay (M1AAP inhibitors).)]
Sequence of Aspartyl aminopeptidase (Q8I2J3 whole entry): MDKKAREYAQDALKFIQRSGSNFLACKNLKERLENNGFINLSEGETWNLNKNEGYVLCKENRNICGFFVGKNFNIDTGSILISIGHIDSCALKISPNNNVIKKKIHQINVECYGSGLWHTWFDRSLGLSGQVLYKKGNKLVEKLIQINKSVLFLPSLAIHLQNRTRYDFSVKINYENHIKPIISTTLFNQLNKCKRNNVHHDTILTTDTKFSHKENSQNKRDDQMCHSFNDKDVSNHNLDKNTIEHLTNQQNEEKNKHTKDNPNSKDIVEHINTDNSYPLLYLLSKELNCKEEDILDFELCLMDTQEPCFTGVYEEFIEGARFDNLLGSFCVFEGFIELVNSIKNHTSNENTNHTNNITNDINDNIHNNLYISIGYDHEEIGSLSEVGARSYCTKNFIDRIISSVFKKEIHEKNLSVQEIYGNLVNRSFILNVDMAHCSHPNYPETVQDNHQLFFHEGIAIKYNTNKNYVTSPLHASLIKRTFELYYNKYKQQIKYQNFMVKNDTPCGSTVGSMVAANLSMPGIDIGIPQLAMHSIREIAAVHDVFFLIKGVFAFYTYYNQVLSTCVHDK

[23] = target: T7, Bcl-2-like protein 10 (Homo sapiens, UniProt Q9HD36); assay: Concentration-response of Bcl-B inhibitors by biochemical FP with TR3 (AID 1243); type: functional
T7 sequence (Q9HD36 whole entry): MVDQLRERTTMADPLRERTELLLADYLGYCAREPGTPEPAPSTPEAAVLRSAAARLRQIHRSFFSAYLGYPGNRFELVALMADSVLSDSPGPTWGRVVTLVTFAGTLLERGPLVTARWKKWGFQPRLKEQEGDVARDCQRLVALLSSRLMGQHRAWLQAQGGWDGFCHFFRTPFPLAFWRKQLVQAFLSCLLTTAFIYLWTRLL

Structure (SMILES): C[C@H]1CN(C2=C(Cl)C(=O)N(c3ccc(Cl)c(Cl)c3)C2=O)CCN1
- IC50 [1]: 1.32 µM (active)
- IC50 [2]: 1.25 µM (active)

Structure (SMILES): CCN(CC)c1ccc2cc(C(N)=O)c(=N)oc2c1
- EC50 [5]: > 100 µM (active)

Structure (SMILES): O=C(CSc1nc(-c2ccccc2)nc2c1Cc1ccccc1O2)Nc1ccc(C(=O)O)cc1
- IC50 [6]: 23.1 µM (inactive)
- IC50 [7]: 5.3 µM (active)
- IC50 [8]: 6.38 µM (active)
- IC50 [9]: 17.1 µM (active)
- IC50 [10]: 35.1 µM (inactive)
- IC50 [11]: 164 µM (active)

Structure (SMILES): Cc1ccc(C)c(C(=O)Cn2ncc(Cl)c(Cl)c2=O)c1
- EC50 [12]: 2.35 µM (active)
- IC50 [13]: 2.99 µM (active)
- EC50 [14]: 3.56 µM (active)
- AC50 [15]: 8.4 µM (active)
- AC50 [16]: 14.5 µM (active)
- IC50 [17]: 12.1 µM (not active)

Structure (SMILES): O=C(O)C1CC=CCC1C(=O)Nc1cccc(Cl)c1 (stereo not drawn)
- IC50 [20]: 6.23 µM (active)
- IC50 [21]: > 59.6 µM (not active)
- IC50 [22]: > 73.5 µM (not active)

Now from value to compound:

- IC50 [3]: > 20 µM (not active)
- IC50 [4]: > 50 µM (not active)
Structure (SMILES): COc1ccc2c(c1)S(=O)(=O)c1ccccc1N2

- IC50 [18]: > 109 µM (not active)
- IC50 [19]: > 109 µM (not active)
Structure (SMILES): Cc1ccc(-c2csc3ncn(CC#N)c(=O)c23)cc1C

- EC50 [23]: 5.38 µM (active)
Structure (SMILES): Cc1cc(C)nc(/N=C(\N)Nc2ccc(N)cc2)n1
